# Measurements taken from the supplement of paper PMC10307832.
# Columns and labels:
# Experiment in all cases: relative viability (nuclei count vs DMSO), 5 days (fraction); higher = more cells survive
# [1] = compound: C[C@]1(O)C[C@@H](c2nc(-c3ccc4ccc(-c5ccccc5)nc4c3)c3c(N)nccn32)C1 [Linsitinib] + CC(=O)Nc1cccc(-n2c(=O)n(C3CC3)c(=O)c3c(Nc4ccc(I)cc4F)n(C)c(=O)c(C)c32)c1 [Trametinib] (partner 0.02 µM)
# In short: (§1)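 Relative viability equals treated-well nuclei counts divided by vehicle-well nuclei counts. Counts came from 4× images of lung cancer cell lines grown in 1536-well plates for 5 days after pin-tool dosing on the day after seeding. Dosing used one drug alone or a fixed anchor-drug dose plus five library-drug doses (not always all listed) in √10 steps, and values are medians of duplicate plates.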
# [2] = compound: C[C@]1(O)C[C@@H](c2nc(-c3ccc4ccc(-c5ccccc5)nc4c3)c3c(N)nccn32)C1 [Linsitinib] + Cc1nc(Nc2ncc(C(=O)Nc3c(C)cccc3Cl)s2)cc(N2CCN(CCO)CC2)n1 [Dasatinib] (partner 0.075 µM)
# In short: as §1
# [3] = compound: C[C@]1(O)C[C@@H](c2nc(-c3ccc4ccc(-c5ccccc5)nc4c3)c3c(N)nccn32)C1 [Linsitinib] + Nc1ncn([C@H]2C[C@H](O)[C@@H](CO)O2)c(=O)n1 [Decitabine] (partner 2 µM)
# In short: as §1
# [4] = compound: C[C@]1(O)C[C@@H](c2nc(-c3ccc4ccc(-c5ccccc5)nc4c3)c3c(N)nccn32)C1 [Linsitinib] + O=C(CCCCCCC(=O)Nc1ccccc1)NO [Vorinostat] (partner 1 µM)
# In short: as §1
Cell Line,relative viability ([1]; first compound 0.01 µM),relative viability ([1]; first compound 0.1 µM),relative viability ([1]; first compound 0.3162 µM),relative viability ([1]; first compound 1 µM),relative viability ([2]; first compound 0.01 µM),relative viability ([2]; first compound 0.03162 µM),relative viability ([2]; first compound 0.1 µM),relative viability ([2]; first compound 0.3162 µM),relative viability ([2]; first compound 1 µM),relative viability ([3]; first compound 0.01 µM),relative viability ([3]; first compound 0.1 µM),relative viability ([3]; first compound 0.3162 µM),relative viability ([3]; first compound 1 µM),relative viability ([4]; first compound 0.01 µM),relative viability ([4]; first compound 0.1 µM),relative viability ([4]; first compound 0.3162 µM),relative viability ([4]; first compound 1 µM),relative viability ([1]; first compound 0.03162 µM),relative viability ([3]; first compound 0.03162 µM),relative viability ([4]; first compound 0.03162 µM)
NCI-H1395,1,1.05,0.961,1.03,0.425,0.372,0.399,0.441,0.43,0.691,0.777,0.695,0.702,0.671,0.821,0.68,0.644,,,
NCI-H1437,0.518,0.519,0.34,0.352,0.352,0.308,0.463,0.505,0.463,0.541,0.555,0.4,0.599,0.815,0.851,0.618,0.626,0.518,0.551,0.709
NCI-H1650,0.592,0.537,0.464,0.349,0.291,0.293,0.355,0.258,0.241,0.571,0.415,0.325,0.361,0.51,0.621,0.386,0.377,0.524,0.449,0.505
NCI-H1651,0.827,0.884,0.777,0.824,0.343,0.386,0.416,0.251,0.301,0.316,0.518,0.516,0.597,0.267,0.5,0.543,0.484,0.861,0.744,0.535
NCI-H1666,0.8,0.904,0.644,0.594,0.854,0.767,0.853,0.64,0.473,0.622,0.732,0.521,0.602,1,1.02,0.617,0.922,0.907,0.79,1.06
NCI-H1734,0.642,0.61,0.468,0.605,0.473,0.488,0.45,0.504,0.315,0.512,0.463,0.516,0.487,0.865,0.877,0.554,0.541,0.685,0.502,0.727
NCI-H1755,0.731,0.76,0.715,0.721,0.428,0.431,0.427,0.363,0.229,0.719,0.719,0.559,0.702,0.741,0.821,0.58,0.727,0.783,0.856,0.773
NCI-H1793,0.414,0.457,0.36,0.395,0.434,0.367,0.382,0.332,0.392,0.428,0.547,0.422,0.454,0.816,0.705,0.536,0.433,0.479,0.634,0.749
